In US8602544B2, “Ink set, ink cartridge, ink jet recording method, and ink jet recording apparatus” (Canon Kabushiki Kaisha, priority 2009, dated 2013):

Test: Determination of poor medium/good medium (solubility of the dye in a water-soluble organic solvent)
Type: physicochemical
Description: It is determined by the solubility of the dye whether a certain water-soluble organic solvent is a good medium or a poor medium with respect to a dye to be used together. In other words, the good medium and the poor medium are indexes which indicate the relationship between the water-soluble organic solvent and the dye from the viewpoint of the solubility.
More specifically, it can be determined in the following way whether a certain water-soluble organic solvent is a good medium or a poor medium with respect to a dye being an object to be determined. The water-soluble organic solvent of an object to be determined and a sufficient amount of a dye are placed into a sample bottle having a capacity of approximately 20 cc, and the liquid is stirred overnight. […] Because the supernatant liquid after the centrifugal separation is a saturated solution of the dye, the solubility of the dye can be determined by measuring the absorbance of the liquid, and calculating the ratio of the measured absorbance to the absorbance of an aqueous solution of the dye with a known concentration.
In order to evaluate the reliability of the ink, it was determined what type of relationship there was between a dye and a water-soluble organic solvent which were contained in an ink. A water-soluble organic solvent being an object to be determined (when the water-soluble organic compound is solid, it was a 20% aqueous solution of the solid) and a sufficient amount of the dye were placed into a sample bottle having a capacity of 20 cc, and the liquid was stirred overnight. […] Then, the solubility of the dye with respect to the water-soluble organic solvent being the object to be determined (or 20% aqueous solution) was determined from the ratio of the measured absorbance to the previously measured absorbance of an aqueous solution having a predetermined concentration of the dye. From the obtained solubility, a water-soluble organic solvent having a solubility of 5% or less was determined to be a poor medium, and a water-soluble organic solvent having a solubility of more than 5% was determined to be a good medium.

[1] = 1-(2-hydroxyethyl)-2-pyrrolidinone
[2] = Triethylene glycol monobutyl ether

Row | SMILES | Determination results for poor medium/good medium (solubility of the dye) (1,2-hexandiol) | Determination results for poor medium/good medium (solubility of the dye) (1,5-pentanediol) | Determination results for poor medium/good medium (solubility of the dye) [1] | Determination results for poor medium/good medium (solubility of the dye) (2-methyl-1,3-propanediol) | Determination results for poor medium/good medium (solubility of the dye) (Diethylene glycol) | Determination results for poor medium/good medium (solubility of the dye) (Ethylene glycol) | Determination results for poor medium/good medium (solubility of the dye) (Glycerin) | Determination results for poor medium/good medium (solubility of the dye) (Propylene glycol) | Determination results for poor medium/good medium (solubility of the dye) (Triethylene glycol) | Determination results for poor medium/good medium (solubility of the dye) [2]
1 | CCc1cc(C)c(S(=O)(=O)O)c(CC)c1Nc1nc(N(c2nc3ccc(S(=O)(=O)O)cc3s2)c2c(CC)cc(C)c(S(=O)(=O)O)c2CC)cc(C)c1N=Nc1c(C#N)c(C(C)(C)C)nn1-c1nc2ccc(S(=O)(=O)O)cc2s1 [Exemplified compound M2] | good (a water-soluble organic solvent having a solubility of more than 5% was determined to be a good medium) | good (a water-soluble organic solvent having a solubility of more than 5% was determined to be a good medium) | good (a water-soluble organic solvent having a solubility of more than 5% was determined to be a good medium) | good (a water-soluble organic solvent having a solubility of more than 5% was determined to be a good medium) | good (a water-soluble organic solvent having a solubility of more than 5% was determined to be a good medium) | good (a water-soluble organic solvent having a solubility of more than 5% was determined to be a good medium) | good (a water-soluble organic solvent having a solubility of more than 5% was determined to be a good medium) | good (a water-soluble organic solvent having a solubility of more than 5% was determined to be a good medium) | good (a water-soluble organic solvent having a solubility of more than 5% was determined to be a good medium) | good (a water-soluble organic solvent having a solubility of more than 5% was determined to be a good medium)
2 | Cn1c(=O)c(C(=O)c2cccc(S(=O)(=O)O)c2)c2c3c(c(Nc4cc(Nc5nc(NCCNc6nc(Nc7cc(Nc8ccc9c%10c8C(=O)c8ccccc8-c%10c(C(=O)c8cccc(S(=O)(=O)O)c8)c(=O)n9C)c(S(=O)(=O)O)cc7S(=O)(=O)O)nc(Oc7ccc(S(=O)(=O)O)cc7)n6)nc(Oc6ccc(S(=O)(=O)O)cc6)n5)c(S(=O)(=O)O)cc4S(=O)(=O)O)ccc31)C(=O)c1ccccc1-2 [Exemplified compound M1] | poor (a water-soluble organic solvent having a solubility of 5% or less was determined to be a poor medium) | poor (a water-soluble organic solvent having a solubility of 5% or less was determined to be a poor medium) | good (a water-soluble organic solvent having a solubility of more than 5% was determined to be a good medium) | poor (a water-soluble organic solvent having a solubility of 5% or less was determined to be a poor medium) | good (a water-soluble organic solvent having a solubility of more than 5% was determined to be a good medium) | good (a water-soluble organic solvent having a solubility of more than 5% was determined to be a good medium) | good (a water-soluble organic solvent having a solubility of more than 5% was determined to be a good medium) | good (a water-soluble organic solvent having a solubility of more than 5% was determined to be a good medium) | good (a water-soluble organic solvent having a solubility of more than 5% was determined to be a good medium) | good (a water-soluble organic solvent having a solubility of more than 5% was determined to be a good medium)
